Patent publication US11773078B2, “Furin inhibitors” (Glaxosmithkline Intellectual Property Development Limited, priority 2018, dated 2023)
Structures can show the parent of a compound that is named as a salt.

Tests used:
[1] = molecular target: T1, Furin (108-574-Tev-Flag-His) enzyme (Homo sapiens, UniProt P09958); assay: Furin enzyme assay; format: biochemical; settings: for IC50: read-out: furin enzyme pIC50 (converted)
T1 construct: Furin (108-574-Tev-Flag-His) enzyme was expressed and purified from CHO cells; TEV cleavage site (C); FLAG (C); His (C); made in house; host or cells: CHO cells
Method in brief: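 Compounds ran as 11-point threefold dilutions (0.00017–10 μM final) against 40 pM furin, purified from CHO cells, for 2 h at room temperature. Buffer: 100 mM HEPES pH7.5 with 1 mM CaCl2 and 0.005% Triton X-100. Envision readout. Four-parameter curve gives pXC50.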

[2] = molecular target: T2, furin (endogenous protease) in U20S cells (Homo sapiens, UniProt P09958); assay: Furin cell-based assay (image-based, Golgi-targeted GFP with BMP10 furin/PCSK cleavage site); settings: 24-hour incubation, read-out: furin golgi cell pXC50 (converted);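 note: Read-out is mean GFP fluorescence of Golgi puncta per cell by high-content imaging, retained when furin inhibited, over an eleven-point 0.00017–10 µM series, four-parameter fit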
T2 construct: the endogenous protease cleaves GFP; endogenous in cells; host or cells: U2OS cells transduced with a BacMam reporter
T2 sequence (P09958 108-794): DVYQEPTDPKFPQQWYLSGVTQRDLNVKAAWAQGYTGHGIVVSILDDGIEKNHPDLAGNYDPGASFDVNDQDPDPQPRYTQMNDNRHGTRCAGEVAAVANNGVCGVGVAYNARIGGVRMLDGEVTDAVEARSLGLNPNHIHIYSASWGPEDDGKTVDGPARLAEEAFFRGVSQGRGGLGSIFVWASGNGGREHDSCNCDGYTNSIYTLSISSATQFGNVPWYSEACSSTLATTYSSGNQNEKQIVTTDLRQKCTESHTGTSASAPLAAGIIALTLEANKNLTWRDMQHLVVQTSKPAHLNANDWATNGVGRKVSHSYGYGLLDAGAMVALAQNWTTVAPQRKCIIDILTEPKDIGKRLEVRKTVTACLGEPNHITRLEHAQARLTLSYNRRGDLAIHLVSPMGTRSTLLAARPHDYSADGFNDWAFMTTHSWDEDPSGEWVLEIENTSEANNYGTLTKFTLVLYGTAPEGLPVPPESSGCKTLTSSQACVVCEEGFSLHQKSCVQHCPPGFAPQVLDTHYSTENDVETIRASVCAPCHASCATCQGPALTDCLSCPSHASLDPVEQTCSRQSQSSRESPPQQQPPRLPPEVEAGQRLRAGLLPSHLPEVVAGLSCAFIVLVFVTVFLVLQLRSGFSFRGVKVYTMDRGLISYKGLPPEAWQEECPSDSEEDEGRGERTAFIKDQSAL

T1 sequence (P09958 108-574): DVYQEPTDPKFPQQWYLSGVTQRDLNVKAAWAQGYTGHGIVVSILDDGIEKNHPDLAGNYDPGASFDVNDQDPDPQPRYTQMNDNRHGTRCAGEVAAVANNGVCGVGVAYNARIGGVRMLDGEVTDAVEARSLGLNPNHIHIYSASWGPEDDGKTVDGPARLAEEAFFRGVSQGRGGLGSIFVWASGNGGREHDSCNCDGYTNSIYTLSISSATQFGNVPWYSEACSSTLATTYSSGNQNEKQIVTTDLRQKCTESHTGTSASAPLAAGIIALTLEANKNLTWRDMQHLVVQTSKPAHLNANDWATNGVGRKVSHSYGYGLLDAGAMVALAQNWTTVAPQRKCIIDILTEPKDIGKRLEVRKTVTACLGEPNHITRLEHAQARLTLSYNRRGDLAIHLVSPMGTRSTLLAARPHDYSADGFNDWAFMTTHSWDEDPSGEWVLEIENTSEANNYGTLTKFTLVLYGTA

IC50 [1]	EC50 [2]	furin enzyme pIC50 [1]	Structure (SMILES)
0.0316 nM	5.01 nM		COC(=O)NCC1CCN(Cc2cc(Oc3cnc(N4CC5CCC(C4)N5CCC(=O)O)nc3)nc(-c3cc(Cl)cc(Cl)c3)c2)CC1 [Example 56, 3-(3-(5-((6-(3,5-dichlorophenyl)-4-((4-(((methoxycarbonyl)amino)methyl)piperidin-1-yl)methyl)pyridin-2-yl)oxy)pyrimidin-2-yl)-3,8-diazabicyclo[3.2.1]octan-8-yl)propanoic acid]
	10 nM	10.3	CC(CCN1CCN(c2ncc(Oc3cc(CN4CCC(CCO)CC4)cc(-c4cc(Cl)cc(Cl)c4)n3)cn2)CC1)C(=O)O (stereo not drawn) [Example 57, 4-(4-(5-((6-(3,5-dichlorophenyl)-4-((4-(2-hydroxyethyl)piperidin-1-yl)methyl)pyridin-2-yl)oxy)pyrimidin-2-yl)piperazin-1-yl)-2-methylbutanoic acid]
	15.8 nM	9.2	O=C(O)CCN1CCN(c2ccc(Oc3cc(CN4CCC(CNC(=O)C5CC5)CC4)cc(-c4cc(Cl)cc(Cl)c4)n3)cn2)CC1 [Example 58, 3-(4-(5-((4-((4-(cyclopropanecarboxamidomethyl)piperidin-1-yl)methyl)-6-(3,5-dichlorophenyl)pyridin-2-yl)oxy)pyridin-2-yl)piperazin-1-yl)propanoic acid]
	6.31 nM	8.9	CCC(=O)NCC1CCN(Cc2cc(Oc3cnc(N4CCN(CCC(C)C(=O)O)CC4)nc3)nc(-c3cc(Cl)cc(Cl)c3)c2)CC1 (stereo not drawn) [Example 59, 4-(4-(5-((6-(3,5-dichlorophenyl)-4-((4-(propionamidomethyl)piperidin-1-yl)methyl)pyridin-2-yl)oxy)pyrimidin-2-yl)piperazin-1-yl)-2-methylbutanoic acid]
	15.8 nM	7.6	CC(O)CCN1CCN(c2ncc(Oc3cc(CN4CCC(F)CC4)cc(-c4cc(Cl)cc(Cl)c4)n3)cn2)CC1 (stereo not drawn) [Example 60, 4-(4-(5-((6-(3,5-dichlorophenyl)-4-((4-fluoropiperidin-1-yl)methyl)pyridin-2-yl)oxy)pyrimidin-2-yl)piperazin-1-yl)butan-2-ol]
	158 nM	9.2	CC(=O)NCC1CCN(Cc2cc(Oc3cnc(N4CCN(CCC(=O)O)CC4)nc3)nc(-c3cc(Cl)cc(C(F)F)c3)c2)CC1 [Example 61, 3-(4-(5-((4-((4-(acetamidomethyl)piperidin-1-yl)methyl)-6-(3-chloro-5-(difluoromethyl)phenyl)pyridin-2-yl)oxy)pyrimidin-2-yl)piperazin-1-yl)propanoic acid]
	7.94 nM	10.8	COC(=O)NCC1CCN(Cc2cc(Oc3cnc(N4CCN(C)CC4)nc3)nc(-c3cc(Cl)cc(Cl)c3)c2)CC1 [Example 63, Methyl ((1-1(2-(3,5-dichlorophenyl)-6-((2-(4-methylpiperazin-1-yl)pyrimidin-5-yl)oxy)pyridin-4-yl)methyl)piperidin-4-yl)methyl)carbamate, 4 hydrochloride]
	10 nM	9.1	CC(=O)NCC1CCN(Cc2cc(Oc3cnc(N4CCN(C)CC4)nc3)nc(-c3cc(Cl)cc(Cl)c3)c2)CC1 [Example 64, N-((1-((2-(3,5-dichlorophenyl)-6-((2-(4-methylpiperazin-1-yl)pyrimidin-5-yl)oxy)pyridin-4-yl)methyl)piperidin-4-yl)methyl)acetamide]
	20 nM	8.7	COC(=O)NCC1CCN(Cc2cc(Oc3ccc(N4CCN(C)CC4)nc3)nc(-c3cc(Cl)cc(Cl)c3)c2)CC1 [Example 65, methyl ((1-((2-(3,5-dichlorophenyl)-6-((6-(4-methylpiperazin-1-yl)pyridin-3-yl)oxy)pyridin-4-yl)methyl)piperidin-4-yl)methyl)carbamate]
1.58 nM	7.94 nM		CNC(=O)OCC1CCN(Cc2cc(Oc3cnc(N4CCN(C)CC4)nc3)nc(-c3cc(Cl)cc(Cl)c3)c2)CC1 [Example 66, (1-((2-(3,5-dichlorophenyl)-6-((2-(4-methylpiperazin-1-yl)pyrimidin-5-yl)oxy)pyridin-4-yl)methyl)piperidin-4-yl)methyl methylcarbamate]
	12.6 nM	10.4	CNC(=O)OCC1CCN(Cc2cc(Oc3ccc(N4CCN(C)CC4)nc3)nc(-c3cc(Cl)cc(Cl)c3)c2)CC1 [Example 67, (1-((2-(3,5-dichlorophenyl)-6-((6-(4-methylpiperazin-1-yl)pyridin-3-yl)oxy)pyridin-4-yl)methyl)piperidin-4-yl)methyl methylcarbamate]
	12.6 nM	9.6	CC(=O)NCC1CCN(Cc2cc(Oc3cnc(N4CCN(C)CC4)nc3)cc(-c3cc(Cl)cc(Cl)c3)c2)CC1 [Example 68, N-((1-((3′,5′-dichloro-5-((2-(4-methylpiperazin-1-yl)pyrimidin-5-yl)oxy)-[1,1′-biphenyl]-3-yl)methyl)piperidin-4-yl)methyl)acetamide]
	5.01 nM	9.1	CNC(=O)NCC1CCN(Cc2cc(Oc3ccc(N4CCN(C)CC4)nc3)nc(-c3cc(Cl)cc(Cl)c3)c2)CC1 [Example 69, 1-((1-((2-(3,5-dichlorophenyl)-6-((6-(4-methylpiperazin-1-yl)pyridin-3-yl)oxy)pyridin-4-yl)methyl)piperidin-4-yl)methyl)-3-methylurea]
0.0316 nM	3.98 nM		CNC(=O)NCC1CCN(Cc2cc(Oc3cnc(N4CCN(C)CC4)nc3)nc(-c3cc(Cl)cc(Cl)c3)c2)CC1 [Example 70, 1-((1-((2-(3,5-dichlorophenyl)-6-((2-(4-methylpiperazin-1-yl)pyrimidin-5-yl)oxy)pyridin-4-yl)methyl)piperidin-4-yl)methyl)-3-methylurea]
0.2 nM	1.58 nM		CC(=O)NCC1CCN(Cc2cc(Oc3cnc(N4CC5CCC(C4)N5C)nc3)nc(-c3cc(Cl)cc(Cl)c3)c2)CC1 [Example 71, N-((1-((2-(3,5-dichlorophenyl)-6-((2-(8-methyl-3,8-diazabicyclo[3.2.1]octan-3-yl)pyrimidin-5-yl)oxy)pyridin-4-yl)methyl)piperidin-4-yl)methyl)acetamide]
	10 nM	8.8	CN1CCN(c2ncc(Oc3cc(CN4CCC(Cc5nnn[nH]5)CC4)cc(-c4cc(Cl)cc(Cl)c4)n3)cn2)CC1 [Example 72, 5-((4-((4-((1H-tetrazol-5-yl)methyl)piperidin-1-yl)methyl)-6-(3,5-dichlorophenyl)pyridin-2-yl)oxy)-2-(4-methylpiperazin-1-yl)pyrimidine]
	6.31 nM	8.9	CNC(=O)OCC1CCN(Cc2cc(Oc3cnc(N4CCNCC4)nc3)nc(-c3cc(Cl)cc(Cl)c3)c2)CC1 [Example 73, (1-((2-(3,5-Dichlorophenyl)-6-((2-(piperazin-1-yl)pyrimidin-5-yl)oxy)pyridin-4-yl)methyl)piperidin-4-yl)methyl methylcarbamate]
	6.31 nM	8.4	CNC(=O)OCC1CCN(Cc2cc(Oc3ccc(N4CCNCC4)nc3)nc(-c3cc(Cl)cc(Cl)c3)c2)CC1 [Example 74, (1-((2-(3,5-Dichlorophenyl)-6-((6-(piperazin-1-yl)pyridin-3-yl)oxy)pyridin-4-yl)methyl)piperidin-4-yl)methyl methylcarbamate, 4 hydrochloride]
